# Laboratory results reported in patent US8513233B2, “Pyrimidinyl-propionic acid derivatives and their use as PPAR agonists” (Shanghai Institute of Materia Medica, CAS, priority 2007, dated 2013).
# Experiments:
# [1] = tested on: ADPKD cyst-lining epithelia; settings: dose-dependent and time-dependent; cited from earlier work
# [2] = tested on: human renal epithelial cells (HKC); settings: cited from earlier work
# [3] = tested on: SPC-A1; experiment: Growth inhibition, modified MTT assay, SPC-A1; assay type: cell-based; settings: SPCA1, mean of 3 independent tests
# Outline: (§1)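 Cells seeded 24 h in 10% FCS medium, switched to serum-free medium for 24 h, then exposed to graded compound concentrations in triplicate. Viability read by MTT (4 h), formazan dissolved in DMSO, OD at 492 nm; IC50 from sigmoidal fit, mean of 3 independent tests.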
# [4] = tested on: Han:SPRD rats, animal model of ADPKD; experiment: Administration of rosiglitazone on the Han:SPRD rats (earlier study); assay type: in vivo, rat; settings: when they died, chronic high dose
# [5] = tested on: HepG2; experiment: Growth inhibition, modified MTT assay, HepG2; assay type: cell-based; settings: Homo sapiens, mean of 3 independent tests
# Outline: as §1
# [6] = tested on: MCF-7; experiment: Growth inhibition, modified MTT assay, MCF-7; assay type: cell-based; settings: Homo sapiens, MCF7; MCF-7, MTT, mean of 3 independent tests
# Outline: as §1
# [7] = tested on: T24; experiment: Growth inhibition, modified MTT assay, T24; assay type: cell-based; settings: Homo sapiens, T-24, mean of 3 independent tests
# Outline: as §1
# [8] = target: T1, PPAR-γ (Homo sapiens, UniProt P37231); experiment: Transient transfection and transcription assay (luciferase reporter, U2OS cells); assay type: cell-based; settings: 24 h treatment
# T1 construct: expressed in transfected cells; host or cells: U2OS cells, transiently transfected with pcDNA3.1 expression vectors (FuGene6)
# T1 sequence (P37231 1-505): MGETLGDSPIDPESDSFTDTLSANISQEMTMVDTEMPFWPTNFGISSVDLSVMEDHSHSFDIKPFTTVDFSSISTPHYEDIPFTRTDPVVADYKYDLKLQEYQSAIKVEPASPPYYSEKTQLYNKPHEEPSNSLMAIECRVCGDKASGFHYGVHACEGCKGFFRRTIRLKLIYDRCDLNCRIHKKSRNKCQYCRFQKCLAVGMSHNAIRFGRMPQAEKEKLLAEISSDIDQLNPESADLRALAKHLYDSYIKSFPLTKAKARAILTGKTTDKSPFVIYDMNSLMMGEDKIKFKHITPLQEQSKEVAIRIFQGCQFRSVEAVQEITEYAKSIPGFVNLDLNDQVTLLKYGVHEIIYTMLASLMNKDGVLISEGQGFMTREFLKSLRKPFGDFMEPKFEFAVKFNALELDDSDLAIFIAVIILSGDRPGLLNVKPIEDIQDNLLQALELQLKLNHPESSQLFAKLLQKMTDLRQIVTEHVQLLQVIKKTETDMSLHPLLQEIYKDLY
# T1 sequence (P19793 1-462 partner): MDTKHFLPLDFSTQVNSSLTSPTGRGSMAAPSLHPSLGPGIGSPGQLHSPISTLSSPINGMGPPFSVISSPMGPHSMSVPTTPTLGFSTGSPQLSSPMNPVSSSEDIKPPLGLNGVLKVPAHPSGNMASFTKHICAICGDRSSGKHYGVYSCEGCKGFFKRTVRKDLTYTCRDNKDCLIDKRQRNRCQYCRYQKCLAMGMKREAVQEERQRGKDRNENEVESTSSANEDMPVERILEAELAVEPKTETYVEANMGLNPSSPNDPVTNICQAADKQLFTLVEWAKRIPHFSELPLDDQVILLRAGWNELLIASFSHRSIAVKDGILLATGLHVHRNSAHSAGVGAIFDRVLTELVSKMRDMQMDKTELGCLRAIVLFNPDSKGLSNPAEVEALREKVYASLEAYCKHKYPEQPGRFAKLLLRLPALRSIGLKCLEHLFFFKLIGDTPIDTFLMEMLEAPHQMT
heart and liver weight [4],IC50 [5],IC50 [6],IC50 [7],EC50 [8],melting point,SMILES,apoptosis of ADPKD cyst-lining epithelia [1],proliferation of ADPKD cyst-lining epithelia [1],effect on human renal epithelial cells (HKC) [2],IC50 [3]
,,,,,,"CCCCC/C=C/C=C1/C(=O)C=C[C@@H]1C/C=C\CCCC(=O)O [Compound 15d-PGJ2, 15d-PGJ2]",induce apoptosis,inhibit the proliferation,relatively weak,
heart and liver weight gain,80.2 µM,45.6 µM,69 µM,,,"CN(CCOc1ccc(CC2SC(=O)NC2=O)cc1)c1ccccn1 (centres unmarked) [Rosiglitazone, reference compound]",,,,59.8 µM
,> 50 µM,42.2 µM,> 50 µM,5.89 µM,112 to 114 °C,"CC(Cc1ccc(Oc2cc(N3CCN(Cc4ccc(Br)cc4)CC3)nc(N)n2)cc1)(Oc1ccccc1)C(=O)O (centres unmarked) [Compound 15, 3-{4-{2-Amino-6-[4-(4-bromo-benzyl)-piperazin-1-yl]-pyrimidin-4-yloxy}-phenyl}-2-methyl-2-phenoxy-propionic acid]",,,,45.3 µM
